System: HEK293T cells overexpressing full-length HOIP, HOIL-1L, and SHARPIN
Assay: CellTiter-Glo Luminescent cell viability assay, transfected cells
Assay type: cell-based
Conditions: 17 h
Description: Thurston, Imperial College London. 2.3 × 10^6 cells were seeded into 100 mm Petri dishes in DMEM media supplemented with 10% v/v FBS (Biosera) and 1% v/v L-glutamine/penicillin/streptomycin (Sigma-Aldrich) and incubated at 37 °C overnight. The following morning the cells were transfected using either 6 µg pcDNA3 or 4.5 µg HOIP, 0.3 µg HOIL-1L and 1.2 µg SHARPIN as well as 450 ng pRDII Luc and 180 ng pRLTK (Promega) plasmids. 7 h after transfection, the cells were trypsinized and re-suspended in DMEM media supplemented with 1% v/v FBS (Biosera) and 1% v/v L-glutamine/penicillin/streptomycin (Sigma-Aldrich). […]
Reporter assays: After incubating the plates for 17 h, Firefly and Renilla Luciferase activity was analyzed using the Dual-Luciferase® Reporter Assay System (Promega) and a BertholdTech […]
with Mikrowin 2000 software version 4.41: using its injectors to inject 100 µL LAR II and 100 µL Stop&Glo (see manufacturer’s instructions; Promega #E1960). NF-κB regulated luciferase activity was first normalized to Renilla luciferase activity and then the fold activation relative to cells transfected with empty vector calculated. […]
Cell viability assays: After incubating the plates for 17 h in the presence of compound, cell viability was determined using the CellTiter-Glo® Luminescent Cell Viability Assay according to manufacturer’s instructions (Promega #G7571). […]

COC(=O)/C=C/CNC(=O)c1cc2c([nH]c1=O)CCCC2 [Compound 11a] was tested, and the “effect on cell viability” value was “neither compound had any effect on cell viability”.
